In patent US20250109127A1, “METHODS OF USE OF PHENOXYPROPYLAMINE COMPOUNDS TO TREAT DEPRESSION” (Minerva Neurosciences, Inc., priority 2013, published 2025):
“And” between values parts separate entries of the source, which are not always exact repeats. Equal entries are not always repeated.

Test system: 5-HIAA release in the rat prefrontal cortex
Test: Microdialysis: 5-HIAA release in prefrontal cortex after I.P. administration
Format: in vivo
Conditions: for 5-HIAA in dialysate, MEAN / 5-HIAA in dialysate, individual animals: Citalopram 10 mg/kg I.P.
Experimental: The aim of the study was to evaluate, using microdialysis, the effects of an intraperitoneal (I.P.) administration in rats of three different doses of SON-117 on dopamine and its metabolites, serotonin and its metabolite (5-HIAA), and norepinephrine levels in prefrontal cortex.
Thirty-two adult male Wistar rats were used for the whole study (4 groups of eight animals planned for the study, Table 1).
Surgery was performed on rats weighing about 300 g at the beginning of the experiments. Rats were anaesthetized with Ketamine (50 mg/kg) & Xylazine (15 mg/kg) by intramuscular administration. The animals were placed in a stereotaxic apparatus in the flat-skull position at a constant setting of −3.3 mm between ear bars and the incisor bar. The animals were treated with a local anesthesic (xylocaine 1%, Astra Zeneca) and an analgesic (Temgesic, from Schering Plough, 0.05 mg/kg, s.c.). A rostrocaudal midline incision was made with a lancet to expose the dorsal skull surface. The “stereotaxic zero” was defined by the Bregma in accordance with Paxinos and Watson's atlas (1986). A hole was drilled in the skull with a drill and the meninges were pierced with a sterile needle to implant a CMA12 guide cannula which later received the dialysis probe.
Coordinates used for implanting guide cannula in prefrontal cortex from Bregma were anteroposterior 3.7 mm, mediolateral 0.8 mm, and dorsoventral −2 mm (top of the probe was at −5 mm). The guide cannula was fixed to the skull with two stainless steel screws (1.88 mm outside diameter) anchored. An application of dental cement was added. A plastic collar allowed each animal to be tethered to a Swivel assembly of the CMA 120 awake animal system. Following surgery, rats were kept in individual cages and allowed to recover for a minimum of 3-5 days before the experimentation. The rats were handled and put in plastic bowl for 10 min at least every day to habituate the animals to their new environment for the dialysis. An I.P. administration with saline was also performed every day.
Dialysis probes (CMA12/3 mm, membrane, 20 kD cut-off, Carnegie Medicine, Stockholm, Sweden), were carefully washed before inserting into the guide cannula. The wash was performed with the artificial cerebrospinal fluid (aCSF) medium (NaCl 147 mM, KCl 2.7 mM, CaCl2 1.2 mM, MgCl2 0.85 mM) at room temperature. The dialysis system was then equilibrated at 20° C. at a perfusion rate of 1 μl/min with a Carnegie pump (CMA100). All catheters (FEP tubing, internal volume of 1.2 μl/10 cm, and tubing adaptors) used for microdialysis were treated in the same conditions.
The probes duly prepared were inserted into the guide cannula and the CMA120 Swivel assembly secured to the animal using a plastic collar. Flow through the dialysis probe with aCSF was maintained at a rate of 1 μl/min during the whole experimentation. The first four fractions (corresponding to 2 hours) were discarded to avoid the effects of parenchymal disturbance and to ensure that an approximate steady-state level was reached. Fractions were then collected over a period of 8.5 h during which time the animals remained quiet. The dialysates were automatically collected with an autosampler (microfraction collector CMA 140, Carnegie Medicin) and stored at −80° C. until analysis. […] Perfusion was then maintained for 7 hours with aCSF. The dialysates (30 μl) were collected into 300 μl vials, transferred into dry ice and then kept frozen (−80° C.) until analysis. Frozen samples were shipped to a partner for analysis. At the end of the microdialysis study, a PBS with colored ink was perfused through the probe in order to visualize the dialyzed area.
Catecholamine assay: Concentrations of dopamine, DOPAC, HVA, 5-HIAA, 5-HT, and norepinephrin were determined for each sample by HPLC coupled with electrochemical detection.

`CN(C)CCCC1(c2ccc(F)cc2)OCc2cc(C#N)ccc21` (stereo not drawn) [Citalopram, citalopram, reference compound] was tested, and the “5-HIAA in dialysate, MEAN” value (T30-T1 h) was 112.98 % of respective basal, the “5-HIAA in dialysate, individual animals” value (T30-T1 h) was 108.67 % of respective basal and 107.01 % of respective basal and 121.99 % of respective basal and 141.67 % of respective basal and 110.50 % of respective basal and 102.40 % of respective basal and 95.39 % of respective basal and 116.20 % of respective basal and the “5-HIAA in dialysate, MEAN” value (T1 h 30-T2 h) was 89.03 % of respective basal. The “5-HIAA in dialysate, individual animals” value (T1 h 30-T2 h) was 79.21 % of respective basal and 80.54 % of respective basal and 115.42 % of respective basal and 91.93 % of respective basal and 89.59 % of respective basal and 74.91 % of respective basal and 97.01 % of respective basal and 83.65 % of respective basal, the “5-HIAA in dialysate, MEAN” value (T1 h-T1 h 30) was 101.94 % of respective basal and the “5-HIAA in dialysate, individual animals” value (T1 h-T1 h 30) was 100.18 % of respective basal and 85.46 % of respective basal and 131.13 % of respective basal and 121.97 % of respective basal and 98.30 % of respective basal and 88.97 % of respective basal and 88.75 % of respective basal and 100.76 % of respective basal. The “5-HIAA in dialysate, MEAN” value (T2 h 30-T3 h) was 72.04 % of respective basal, the “5-HIAA in dialysate, individual animals” value (T2 h 30-T3 h) was 51.39 % of respective basal and 53.65 % of respective basal and 94.55 % of respective basal and 76.96 % of respective basal and 86.07 % of respective basal and 61.11 % of respective basal and 78.96 % of respective basal and 73.66 % of respective basal and the “5-HIAA in dialysate, MEAN” value (T2 h-T2 h 30) was 82.39 % of respective basal. For the same compound, the “5-HIAA in dialysate, individual animals” value (T2 h-T2 h 30) was 86.10 % of respective basal and 66.06 % of respective basal and 115.98 % of respective basal and 81.96 % of respective basal and 87.60 % of respective basal and 62.15 % of respective basal and 79.47 % of respective basal and 79.79 % of respective basal, the “5-HIAA in dialysate, MEAN” value (T3 h 30-T4 h) was 74.61 % of respective basal and the “5-HIAA in dialysate, individual animals” value (T3 h 30-T4 h) was 73.28 % of respective basal and 61.52 % of respective basal and 99.49 % of respective basal and 73.39 % of respective basal and 75.64 % of respective basal and 59.18 % of respective basal and 77.94 % of respective basal and 76.45 % of respective basal. For the same compound, the “5-HIAA in dialysate, MEAN” value (T3 h-T3 h 30) was 73.07 % of respective basal, the “5-HIAA in dialysate, individual animals” value (T3 h-T3 h 30) was 74.34 % of respective basal and 48.79 % of respective basal and 107.40 % of respective basal and 68.89 % of respective basal and 77.21 % of respective basal and 56.57 % of respective basal and 77.95 % of respective basal and 73.43 % of respective basal and the “5-HIAA in dialysate, MEAN” value (T4 h 30-T5 h) was 71.07 % of respective basal. For the same compound, the “5-HIAA in dialysate, individual animals” value (T4 h 30-T5 h) was 75.13 % of respective basal and 59.79 % of respective basal and 90.52 % of respective basal and 59.71 % of respective basal and 66.71 % of respective basal and 59.77 % of respective basal and 77.37 % of respective basal and 79.55 % of respective basal, the “5-HIAA in dialysate, MEAN” value (T4 h-T4 h 30) was 73.18 % of respective basal and the “5-HIAA in dialysate, individual animals” value (T4 h-T4 h 30) was 72.77 % of respective basal and 52.24 % of respective basal and 97.15 % of respective basal and 67.66 % of respective basal and 75.69 % of respective basal and 64.72 % of respective basal and 80.07 % of respective basal and 75.12 % of respective basal. For the same compound, the “5-HIAA in dialysate, MEAN” value (T5 h 30-T6 h) was 68.38 % of respective basal, the “5-HIAA in dialysate, individual animals” value (T5 h 30-T6 h) was 55.76 % of respective basal and 56.52 % of respective basal and 86.58 % of respective basal and 66.99 % of respective basal and 65.74 % of respective basal and 68.20 % of respective basal and 71.48 % of respective basal and 75.45 % of respective basal and the “5-HIAA in dialysate, MEAN” value (T5 h-T5 h 30) was 69.50 % of respective basal. The “5-HIAA in dialysate, individual animals” value (T5 h-T5 h 30) was 50.96 % of respective basal and 91.09 % of respective basal and 61.61 % of respective basal and 64.79 % of respective basal and 60.00 % of respective basal and 84.10 % of respective basal and 73.94 % of respective basal, the “5-HIAA in dialysate, MEAN” value (T6 h 30-T7 h) was 67.44 % of respective basal and the “5-HIAA in dialysate, individual animals” value (T6 h 30-T7 h) was 61.13 % of respective basal and 52.63 % of respective basal and 87.81 % of respective basal and 64.43 % of respective basal and 57.20 % of respective basal. For the same compound, the “5-HIAA in dialysate, MEAN” value (T6 h-T6 h 30) was 63.81 % of respective basal, the “5-HIAA in dialysate, individual animals” value (T6 h-T6 h 30) was 60.01 % of respective basal and 53.66 % of respective basal and 90.97 % of respective basal and 62.02 % of respective basal and 55.94 % of respective basal and 67.93 % of respective basal and 47.86 % of respective basal and 72.09 % of respective basal and the “5-HIAA in dialysate, MEAN” value (T-30 min-T0 (pre-dose)) was 102.91 % of respective basal. For the same compound, the “5-HIAA in dialysate, MEAN” value (T-1 h 30-T-1 h (pre-dose)) was 97.47 % of respective basal, the “5-HIAA in dialysate, MEAN” value (T-1 h-T-30 min (pre-dose)) was 98.99 % of respective basal and the “5-HIAA concentration in prefrontal cortex, significant slight increase” value (citalopram 10 mg/kg IP, at 0.5 h and 1 h) was 113%.
